Test results published in US20240124504A1, “AROMATIC HETEROCYCLIC COMPOUND, AND PHARMACEUTICAL COMPOSITION AND APPLICATION THEREOF” (GT APEIRON THERAPEUTICS LIMITED, priority 2020, published 2024).

Tests used:
[1] = molecular target: CDK7/cyclinH/MAT1 complex (Homo sapiens, UniProt P50613); assay: In-vitro enzymatic inhibitory activity testing, CDK7 inhibition assay (Caliper EZ Reader II); type: biochemical; settings: CDK7/cyclinH/MAT1 6 nM, 180 min at 27° C.
Procedure, shortened: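 Enzyme preincubated 10 min with compound, then peptide substrate plus ATP added in 80 mM MES pH 6.5, 10 mM MgCl2 buffer; 180 min at 27 °C, stopped with EDTA.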

CDK2/cyclinE1 complex = CDK2/cyclinE1 complex (Homo sapiens, UniProt P24941); assay: In-vitro enzymatic inhibitory activity testing, CDK2 inhibition assay (Caliper EZ Reader II); type: biochemical; settings: CDK2/cyclinE1 0.5 nM, 180 min at 27° C.
Procedure, shortened: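 CDK2/cyclinE1 (0.5 nM) phosphorylated 5-FAM-CDK7tide (2 μM) in MES buffer pH 6.5 with MgCl2, Tween 20 and BSA. Substrate and product were separated electrophoretically on a Caliper EZ Reader II. IC50 values came from nonlinear dose-response fits.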

CDK9/cyclinT1 complex = CDK9/cyclinT1 complex (Homo sapiens, UniProt P50750); assay: In-vitro enzymatic inhibitory activity testing, CDK9 inhibition assay (Caliper EZ Reader II); type: biochemical; settings: CDK9/cyclinT1 8 nM, 180 min at 27° C.
CDK9/cyclinT1 complex, sequence (P50750 whole entry, species assumed): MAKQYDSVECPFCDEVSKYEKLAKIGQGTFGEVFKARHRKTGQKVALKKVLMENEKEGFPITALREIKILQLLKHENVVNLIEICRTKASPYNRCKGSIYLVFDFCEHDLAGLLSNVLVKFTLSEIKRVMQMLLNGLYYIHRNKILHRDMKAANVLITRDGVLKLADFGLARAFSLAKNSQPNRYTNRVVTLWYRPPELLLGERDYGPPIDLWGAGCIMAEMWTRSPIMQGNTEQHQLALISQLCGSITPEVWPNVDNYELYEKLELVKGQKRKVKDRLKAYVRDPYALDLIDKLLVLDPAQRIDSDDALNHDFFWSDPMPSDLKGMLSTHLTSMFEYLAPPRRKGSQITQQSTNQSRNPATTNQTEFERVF
CDK9/cyclinT1 complex, sequence (O60563 whole entry partner, species assumed): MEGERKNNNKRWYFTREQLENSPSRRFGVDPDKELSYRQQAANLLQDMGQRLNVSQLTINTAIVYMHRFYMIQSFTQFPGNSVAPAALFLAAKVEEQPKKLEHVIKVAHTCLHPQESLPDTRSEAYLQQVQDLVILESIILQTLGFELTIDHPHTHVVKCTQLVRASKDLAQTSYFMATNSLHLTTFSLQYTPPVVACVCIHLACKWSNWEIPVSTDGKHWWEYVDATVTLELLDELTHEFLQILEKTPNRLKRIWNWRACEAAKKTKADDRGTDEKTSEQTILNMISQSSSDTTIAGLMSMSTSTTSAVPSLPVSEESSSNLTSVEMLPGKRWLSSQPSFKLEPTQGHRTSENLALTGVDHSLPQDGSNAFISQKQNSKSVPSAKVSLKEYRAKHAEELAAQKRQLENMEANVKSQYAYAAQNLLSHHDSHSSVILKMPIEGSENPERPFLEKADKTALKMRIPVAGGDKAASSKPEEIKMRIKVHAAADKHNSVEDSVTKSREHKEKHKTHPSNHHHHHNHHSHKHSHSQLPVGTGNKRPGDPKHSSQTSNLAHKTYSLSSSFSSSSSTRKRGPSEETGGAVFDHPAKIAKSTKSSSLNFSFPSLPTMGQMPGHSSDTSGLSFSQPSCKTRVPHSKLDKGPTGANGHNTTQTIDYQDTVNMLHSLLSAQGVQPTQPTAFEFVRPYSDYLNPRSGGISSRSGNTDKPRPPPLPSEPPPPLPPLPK
Procedure, shortened: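 Phosphorylated and unphosphorylated fluorescent peptide were resolved by mobility-shift electrophoresis, with IC50 taken from a nonlinear regression of dose-response data. Reactions ran 180 min at 27 °C in MES buffer pH 6.5 with MgCl2, after 10 min enzyme–compound preincubation, using 8 nM CDK9/cyclinT1 and 5-FAM-CDK9tide.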

[2] = molecular target: T1, CDK12 (aa686-1082)/cyclinK complex (Homo sapiens, UniProt Q9NYV4); assay: In-vitro enzymatic inhibitory activity testing, CDK12 inhibition assay (Caliper EZ Reader II); type: biochemical; settings: CDK12/cyclinK 50 nM, 180 min at 27° C.; read-out: CDK12 IC50
T1 construct: A CDK12 (aa686-1082)/cyclinK complex (50 nM)
T1 sequence (Q9NYV4 686-1082, species assumed): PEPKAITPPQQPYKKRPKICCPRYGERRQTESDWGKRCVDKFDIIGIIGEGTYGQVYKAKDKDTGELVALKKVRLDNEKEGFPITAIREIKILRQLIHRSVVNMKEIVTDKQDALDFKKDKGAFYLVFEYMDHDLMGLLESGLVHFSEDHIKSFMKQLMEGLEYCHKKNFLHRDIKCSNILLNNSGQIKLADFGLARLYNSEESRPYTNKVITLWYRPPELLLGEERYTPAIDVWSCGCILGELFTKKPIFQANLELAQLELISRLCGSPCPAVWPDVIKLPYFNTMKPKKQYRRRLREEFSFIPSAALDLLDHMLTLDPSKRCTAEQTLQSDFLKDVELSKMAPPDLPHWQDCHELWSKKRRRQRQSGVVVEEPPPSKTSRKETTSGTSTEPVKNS
T1 sequence (O75909 whole entry partner, species assumed, the tested form may be a part): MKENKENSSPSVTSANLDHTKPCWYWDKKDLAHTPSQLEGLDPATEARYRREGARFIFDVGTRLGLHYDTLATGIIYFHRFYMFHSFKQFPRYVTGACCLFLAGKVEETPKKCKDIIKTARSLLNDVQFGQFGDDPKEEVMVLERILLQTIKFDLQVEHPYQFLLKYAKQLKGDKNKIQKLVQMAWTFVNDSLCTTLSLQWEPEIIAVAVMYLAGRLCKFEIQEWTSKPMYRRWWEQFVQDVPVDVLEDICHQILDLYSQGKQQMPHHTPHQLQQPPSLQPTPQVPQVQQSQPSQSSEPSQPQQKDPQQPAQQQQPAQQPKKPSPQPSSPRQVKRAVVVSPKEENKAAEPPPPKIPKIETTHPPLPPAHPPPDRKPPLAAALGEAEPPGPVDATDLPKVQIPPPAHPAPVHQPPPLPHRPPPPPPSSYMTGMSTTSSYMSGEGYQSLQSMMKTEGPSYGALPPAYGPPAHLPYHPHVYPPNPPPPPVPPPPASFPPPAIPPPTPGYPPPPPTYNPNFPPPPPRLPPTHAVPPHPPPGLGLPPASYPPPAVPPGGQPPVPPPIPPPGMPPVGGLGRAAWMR
Procedure, shortened: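 CDK12 (aa686-1082)/cyclinK complex at 50 nM was pre-incubated with compound for 10 min, then reacted 180 min at 27° C with ATP and 2 μM 5-FAM-CDK9tide in pH 6.5 MES buffer with 10 mM MgCl2. Reactions were EDTA-quenched and product resolved electrophoretically; IC50 from nonlinear curve fit.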

[3] = system: human breast cancer cells HCC70; assay: Cell biological activity detection (CyQuant, 72 hours), HCC70; type: cell-based; settings: incubation for 72 hours
Experimental: (§1) A2780 and HCC70 cells were subjected to trypsin digestion treatment, and cell suspensions were respectively transferred to 15 mL centrifuge tubes and centrifuged for 5 min at […]) rpm; supernatant was discarded, and resuspension was carried out in a fresh medium (RPMI 1640+10% FBS), after counting, cells were seeded into a 384-well plate at 2000/well (50 μL of 1640+10% FBS medium was added to the 2nd column and the 23rd column of the 384-well plate, and 50 μL of DPBS was added to the surrounding wells). Incubation was carried out overnight in an incubator (37° C., 5% CO2).
(§2) The compound was added to the well plates the next day. The compound had the highest concentration of 10 μM and was diluted at 1:4, and there were a total of 9 concentrations; and a positive compound Paclitaxel had the highest concentration of 1 μM and was diluted at 1:3, and there were a total of 9 concentrations. The DMSO content in each well was unified to 0.2%. The cell plates were centrifuged for 30 seconds at 800 rpm and placed in an incubator (37° C., 5% CO2) for incubation for 72 hours. On the fourth day, a Cyquant reagent (3×) was formulated according to kit instructions, and formulation was carried out for each 384-well plate according to the following proportions: DPBS 11.568 mL, CyQuant®? Direct nucleic acid stain 72 μL, and CyQuant® Direct background suppressor 360 μL. After uniform mixing, the reagent was placed at room temperature for further use. The cell plates were taken out and equilibrated for 30 min at room temperature, and 25 μL of the Cyquant reagent (3×) per well was dispensed into the cells of the 384-well plates by Multi-drop, and incubation was carried out for more than 60 minutes at 37° C. Acumen plate reading (Acumen setting: an excitation wavelength of 488 nm). IC50 results were analyzed by XLFIT5 from IDBS Company.

ovarian cancer A2780 = assay: Cell biological activity detection (CyQuant, 72 hours), A2780; type: cell-based, human; settings: A2780 cells, incubation for 72 hours
Experimental: as §1, §2

CDK7/cyclinH/MAT1 complex, sequence (P50613 whole entry, species assumed): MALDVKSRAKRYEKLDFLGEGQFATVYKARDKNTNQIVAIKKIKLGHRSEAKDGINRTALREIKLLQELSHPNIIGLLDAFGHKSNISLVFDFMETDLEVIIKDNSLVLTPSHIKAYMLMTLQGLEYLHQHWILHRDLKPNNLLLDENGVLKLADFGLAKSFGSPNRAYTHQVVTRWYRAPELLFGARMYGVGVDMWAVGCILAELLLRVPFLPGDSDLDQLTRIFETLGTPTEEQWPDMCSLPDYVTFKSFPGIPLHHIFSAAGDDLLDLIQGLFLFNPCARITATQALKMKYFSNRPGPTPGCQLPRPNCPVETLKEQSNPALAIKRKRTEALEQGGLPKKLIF
CDK7/cyclinH/MAT1 complex, sequence (P51946 whole entry partner, species assumed): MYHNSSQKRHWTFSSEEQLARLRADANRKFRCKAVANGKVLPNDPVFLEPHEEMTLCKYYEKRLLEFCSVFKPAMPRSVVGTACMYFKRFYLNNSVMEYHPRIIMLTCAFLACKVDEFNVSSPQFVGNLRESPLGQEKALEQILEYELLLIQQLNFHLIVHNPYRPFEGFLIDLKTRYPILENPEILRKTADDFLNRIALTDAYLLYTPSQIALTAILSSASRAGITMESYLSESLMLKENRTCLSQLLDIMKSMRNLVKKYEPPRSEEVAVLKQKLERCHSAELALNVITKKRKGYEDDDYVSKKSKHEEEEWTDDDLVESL
CDK7/cyclinH/MAT1 complex, sequence (P51948 whole entry partner, species assumed): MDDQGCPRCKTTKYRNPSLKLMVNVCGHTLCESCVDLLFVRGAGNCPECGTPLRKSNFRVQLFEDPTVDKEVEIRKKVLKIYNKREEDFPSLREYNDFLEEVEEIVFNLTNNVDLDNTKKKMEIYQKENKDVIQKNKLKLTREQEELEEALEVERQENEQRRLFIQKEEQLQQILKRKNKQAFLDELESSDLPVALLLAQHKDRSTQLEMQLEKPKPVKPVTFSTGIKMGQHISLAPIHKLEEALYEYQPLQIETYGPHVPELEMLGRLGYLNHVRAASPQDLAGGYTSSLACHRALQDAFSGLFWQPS

| SMILES | IC50 [1] [µM] | IC50 (CDK2/cyclinE1 complex) [µM] | IC50 (CDK9/cyclinT1 complex) [µM] | IC50 [2] [µM] | IC50 (ovarian cancer A2780; Homo sapiens, A2780, 72 h) [µM] | IC50 (ovarian cancer A2780) [µM] | IC50 [3] [µM] | IC50 ([3]; Homo sapiens, HCC70, 72 h) [µM] |
| --- | --- | --- | --- | --- | --- | --- | --- | --- |
| Cc1noc(C)c1-c1ccc2c(-c3nc(NC4CCC5(CCNC5)C4)ncc3C(F)(F)F)c[nH]c2n1 (stereo not drawn) [Compound 35, N-(4-(6-(3,5-dimethylisoxazol-4-yl)-1H-pyrrolo[2,3-b]pyridin-3-yl)-5-(trifluoromethyl)pyrimidin-2-yl)-2-azaspiro[4.4]non-7-amine] | < 0.02 | 0.2 to 5 | 0.2 to 5 | 0.2 to 5 | 0.02 to 0.2 | – | – | 0.02 to 0.2 |
| FC(F)(F)c1cnc(NC2CCC23CCNC3)nc1-c1c[nH]c2nc(N3CCOCC3)ccc12 (stereo not drawn) [Compound 37, N-(4-(6-morpholinyl-1H-pyrrolo[2,3-b]pyridin-3-yl)-5-(trifluoromethyl)pyrimidin-2-yl)-6-azaspiro[3.4]octan-1-amine] | 0.02 to 0.2 | 5 to 50 | 5 to 50 | 5 to 50 | 0.2 to 5 | – | – | 0.2 to 5 |
| FC(F)(F)c1cnc(NC2CCC23CNC3)nc1-c1c[nH]c2nc(N3CCOCC3)ccc12 (stereo not drawn) [Compound 39, N-(4-(6-morpholinyl-1H-pyrrolo[2,3-b]pyridin-3-yl)-5-(trifluoromethyl)pyrimidin-2-yl)-2-azaspiro[3.3]heptan-5-amine] | < 0.02 | 5 to 50 | 5 to 50 | 5 to 50 | 0.02 to 0.2 | – | – | 0.02 to 0.2 |
| FC(F)(F)c1cnc(NC2CCC3(CCNC3)C2)nc1-c1c[nH]c2nc(N3CCOCC3)ccc12 (stereo not drawn) [Compound 40, N-(4-(6-morpholinyl-1H-pyrrolo[2,3-b]pyridin-3-yl)-5-(trifluoromethyl)pyrimidin-2-yl)-2-azaspiro[4.4]non-7-amine] | 0.02 to 0.2 | 5 to 50 | 5 to 50 | 5 to 50 | 0.02 to 0.2 | – | – | 0.2 to 5 |
| FC(F)(F)c1cnc(NC2CCCC3(CCNCC3)C2)nc1-c1c[nH]c2nc(N3CCOCC3)ccc12 (stereo not drawn) [Compound 41, N-(4-(6-morpholinyl-1H-pyrrolo[2,3-b]pyridin-3-yl)-5-(trifluoromethyl)pyrimidin-2-yl)-3-azaspiro[5.5]undecan-8-amine] | 0.02 to 0.2 | 5 to 50 | 5 to 50 | 5 to 50 | 0.02 to 0.2 | – | – | 0.2 to 5 |
| FC(F)(F)c1cnc(NC2C3CNCC32)nc1-c1c[nH]c2nc(N3CCOCC3)ccc12 (stereo not drawn) [Compound 46, N-(4-(6-morpholinyl-1H-pyrrolo[2,3-b]pyridin-3-yl)-5-(trifluoromethyl)pyrimidin-2-yl)-3-azabicyclo[3.1.0]n-hexan-6-amine] | 0.2 to 5 | 5 to 50 | 5 to 50 | 5 to 50 | 0.2 to 5 | – | – | 0.2 to 5 |
| FC(F)(F)c1cnc(NC2CCCNCC2)nc1-c1c[nH]c2nc(N3CCOCC3)ccc12 (stereo not drawn) [Compound 47, N-(4-(6-morpholinyl-1H-pyrrolo[2,3-b]pyridin-3-yl)-5-(trifluoromethyl)pyrimidin-2-yl)azepan-4-amine] | 0.02 to 0.2 | 5 to 50 | 5 to 50 | 5 to 50 | 0.2 to 5 | – | – | 0.2 to 5 |
| FC(F)(F)c1cnc(NC2COC3(CCCNC3)C2)nc1-c1c[nH]c2nc(N3CCOCC3)ccc12 (stereo not drawn) [Compound 50, N-(4-(6-morpholinyl-1H-pyrrolo[2,3-b]pyridin-3-yl)-5-(trifluoromethyl)pyrimidin-2-yl)-1-oxa-7-azaspiro[4.5]decan-3-amine] | 0.2 to 5 | 5 to 50 | > 50 | 5 to 50 | 0.2 to 5 | – | – | 0.2 to 5 |
| FC(F)(F)c1cnc(NC2COC3(CCNCC3)C2)nc1-c1c[nH]c2nc(N3CCOCC3)ccc12 (stereo not drawn) [Compound 51, N-(4-(6-morpholinyl-1H-pyrrolo[2,3-b]pyridin-3-yl)-5-(trifluoromethyl)pyrimidin-2-yl)-1-oxa-8-azaspiro[4.5]decan-3-amine] | 0.2 to 5 | 5 to 50 | 5 to 50 | 5 to 50 | 0.2 to 5 | – | – | 0.2 to 5 |
| FC(F)(F)c1cnc(NCC2CCNC2)nc1-c1c[nH]c2nc(N3CCOCC3)ccc12 (stereo not drawn) [Compound 52, 4-(6-morpholinyl-1H-pyrrolo[2,3-b]pyridin-3-yl)-N-(pyrrolidin-3-ylmethyl)-5-(trifluoromethyl)pyrimidin-2-amine] | 0.02 to 0.2 | 5 to 50 | 5 to 50 | 5 to 50 | 0.2 to 5 | – | – | 0.2 to 5 |

Further lines, with some results ahead:

| IC50 [1] [µM] | IC50 (CDK2/cyclinE1 complex) [µM] | IC50 (CDK9/cyclinT1 complex) [µM] | IC50 [2] [µM] | IC50 (ovarian cancer A2780; Homo sapiens, A2780, 72 h) [µM] | IC50 (ovarian cancer A2780) [µM] | SMILES | IC50 [3] [µM] | IC50 ([3]; Homo sapiens, HCC70, 72 h) [µM] |
| --- | --- | --- | --- | --- | --- | --- | --- | --- |
| < 0.02 | 5 to 50 | > 50 | > 50 | 0.02 to 0.2 | – | CP(C)(=O)c1cccc2c(-c3nc(NCC(O)C(F)(F)F)ncc3C(F)(F)F)c[nH]c12 (single isomer, unassigned) [Compound 146] | 0.02 to 0.2 | – |
| 0.02 to 0.2 | > 50 | > 50 | > 50 | – | 0.02 to 0.2 | CP(C)(=O)c1cccc2c(-c3nc(NCC(O)C(F)(F)F)ncc3C(F)(F)F)c[nH]c12 (single isomer, unassigned) [Compound 147] | 0.2 to 5 | – |
| 0.02 to 0.2 | 5 to 50 | > 50 | 5 to 50 | 0.2 to 5 | – | C[C@@H]1C[C@H](Nc2ncc(C(F)(F)F)c(-c3c[nH]c4nc(N5CCOCC5)ccc34)n2)CCN1 [Compound 54, N-((2R,4R)-2-methylpiperidin-4-yl)-4-(6-morpholinyl-1H-pyrrolo[2,3-b]pyridin-3-yl)-5-(trifluoromethyl)pyrimidin-2-amine] | – | 0.2 to 5 |
| 0.02 to 0.2 | 5 to 50 | > 50 | > 50 | 0.02 to 0.2 | – | FC(F)(F)c1cnc(NC2CCC3CNCC32)nc1-c1c[nH]c2nc(N3CCOCC3)ccc12 (stereo not drawn) [Compound 55, N-(4-(6-morpholinyl-1H-pyrrolo[2,3-b]pyridin-3-yl)-5-(trifluoromethyl)pyrimidin-2-yl)octahydrocyclopenta[c]pyrrol-4-amine] | – | 0.2 to 5 |
| 0.02 to 0.2 | 5 to 50 | > 50 | > 50 | 0.2 to 5 | – | FC(F)(F)c1cnc(NC2COC23CNC3)nc1-c1c[nH]c2nc(N3CCOCC3)ccc12 (stereo not drawn) [Compound 58, N-(4-(6-morpholinyl-1H-pyrrolo[2,3-b]pyridin-3-yl)-5-(trifluoromethyl)pyrimidin-2-yl)-1-oxa-6-azaspiro[3.3]heptan-3-amine] | – | 0.02 to 0.2 |
| < 0.02 | 5 to 50 | 5 to 50 | > 50 | 0.02 to 0.2 | – | FC(F)(F)c1cnc(N[C@@H]2CCC23CNC3)nc1-c1c[nH]c2nc(N3CCOCC3)ccc12 [Compound 59, (R)—N-(4-(6-morpholinyl-1H-pyrrolo[2,3-b]pyridin-3-yl)-5-(trifluoromethyl)pyrimidin-2-yl)-2-azaspiro[3.3]heptan-5-amine] | – | 0.02 to 0.2 |
| 0.02 to 0.2 | > 50 | > 50 | 5 to 50 | 0.2 to 5 | – | CC1(C)COCC(Nc2ncc(C(F)(F)F)c(-c3c[nH]c4nc(C#N)ccc34)n2)CN1 (stereo not drawn) [Compound 62, 3-(2-((3,3-dimethyl-1,4-oxazepan-6-yl)amino)-5-(trifluoromethyl)pyrimidin-4-yl)-1H-pyrrolo[2,3-b]pyridine-6-carbonitrile] | – | 0.2 to 5 |
| < 0.02 | 5 to 50 | 5 to 50 | 5 to 50 | 0.02 to 0.2 | – | N#Cc1ccc2c(-c3nc(N[C@H]4CC[C@H](N)C4)ncc3C(F)(F)F)c[nH]c2n1 [Compound 65, 3-(2-(((1S,3S)-3-aminocyclopentyl)amino)-5-(trifluoromethyl)pyrimidin-4-yl)-1H-pyrrolo[2,3-b]pyridine-6-carbonitrile] | – | 0.02 to 0.2 |
